Experimental data: the supplement of paper PMC11061612

Legend:
[1] = system: EW-16 (Ewing's Sarcoma); test: Bliss excess, mean over the matrix (fraction); higher = more synergy
Summary of the method: (§1)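 Bliss excess equals the observed combination effect minus the expected value EA + EB − EA·EB, where EA and EB are the effects of each agent alone. Combination Emax is the second-highest inhibition within the matrix. Inhibition was scaled from CellTiter-Glo 2.0 luminescence, with 0 set by vehicle wells and 1 by blank wells, after 72 hours of two-drug dosing of cells plated in 1536-well plates.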

[2] = system: HCC1428 (Breast Carcinoma); test: combination Emax (second highest fraction inhibited in the dose matrix, 72 h); higher = more inhibition; extreme values may be limits of the assay
Summary of the method: as §1

[3] = system: NCI-H716 (Colorectal Carcinoma); test: as above
Summary of the method: as §1

[4] = system: RH-41 (Rhabdomyosarcoma); test: as above
Summary of the method: as §1

[5] = system: LS-411N (Colorectal Carcinoma); test: as above
Summary of the method: as §1

[6] = system: 5637 (Bladder Carcinoma); test: as above
Summary of the method: as §1

[7] = system: Jurkat (T-Lymphoblastic Leukemia); test: as above
Summary of the method: as §1

[8] = system: A253 (Head and Neck Carcinoma); test: as above
Summary of the method: as §1

[9] = system: DMS-53 (Small Cell Lung Carcinoma); test: as above
Summary of the method: as §1

[10] = system: NCI-H2228 (Lung Adenocarcinoma); test: as above
Summary of the method: as §1

[11] = system: ESO26 (Esophageal Adenocarcinoma); test: as above
Summary of the method: as §1

[12] = system: GCT (Other Solid Carcinomas); test: as above
Summary of the method: as §1

[13] = system: EPLC-272H (Other Solid Carcinomas); test: as above
Summary of the method: as §1

[14] = system: KYSE-140 (Esophageal Squamous Cell Carcinoma); test: as above
Summary of the method: as §1

[15] = system: OACp4C (Esophageal Adenocarcinoma); test: as above
Summary of the method: as §1

[16] = system: EW-16 (Ewing's Sarcoma); test: as above
Summary of the method: as §1

[17] = system: COLO-792 (Melanoma); test: as above
Summary of the method: as §1

[18] = system: A101D (Melanoma); test: as above
Summary of the method: as §1

[19] = system: NB13 (Neuroblastoma); test: as above
Summary of the method: as §1

[20] = system: UACC-812 (Breast Carcinoma); test: as above
Summary of the method: as §1

SMILES	Bliss excess [1]	combination Emax [2]	combination Emax [3]	combination Emax [4]	combination Emax [5]	combination Emax [6]	combination Emax [7]	combination Emax [8]	combination Emax [9]	combination Emax [10]	combination Emax [11]	combination Emax [12]	combination Emax [13]	combination Emax [14]	combination Emax [15]	combination Emax [16]	combination Emax [17]	combination Emax [18]	combination Emax [19]	combination Emax [20]
C[C@@H](c1ccc2nccn2c1)n1nnc2ncc(-c3cnn(C)c3)nc21 [Savolitinib] + CN(CC[C@H](CSC1=CC=CC=C1)NC2=C(C=C(C=C2)S(=O)(=O)NC(=O)C3=CC=C(C=C3)N4CCC(CC4)[C@H](C5=CC=CC=C5C6=CC=C(C=C6)Cl)O)S(=O)(=O)C(F)(F)F)CCO [AZD4320] (first compound max 1 µM, 7x7, partner max 1 µM)	-0.0994	0.476	0.189	0.806	0.277	0.179	0.556	0.22	0.994	0.134	0.127	0.2	0.257	0.236	0.78	0.416	0.798	0.409	–	–
Cc1cc2ncnn2cc1Nc1ncc2c(n1)n(C1CCOCC1)c(=O)n2C [AZD7648] + O=C(c1cc(Cc2n[nH]c(=O)c3ccccc23)ccc1F)N1CCN(C(=O)C2CC2)CC1 [Olaparib] (first compound max 10 µM, 7x7, partner max 10 µM)	-0.0484	0.147	0.258	0.345	0.0674	0.25	0.508	0.17	0.128	0.353	0.155	0.243	0.53	0.197	0.363	0.47	0.347	0.261	0.263	0.177
N#Cc1cnc(Nc2cc(NC[C@H]3CNCCO3)c(C(F)(F)F)cn2)cn1 [SRA737] + C=CCn1c(=O)c2cnc(Nc3ccc(N4CCN(C)CC4)cc3)nc2n1-c1cccc(C(C)(C)O)n1 [AZD1775] (first compound max 10 µM, partner max 1 µM)	–	–	–	–	–	–	–	–	–	–	–	–	–	–	–	–	–	–	0.853	0.511
CN(CCO)CC[C@H](CSc1ccccc1)Nc1ccc(S(=O)(=O)NC(=O)c2ccc(N3CCC([C@@H](O)c4ccccc4-c4ccc(Cl)cc4)CC3)cc2)cc1S(=O)(=O)C(F)(F)F [AZD4320] + C1CN(CCC1(C(=O)N[C@@H](CCO)C2=CC=C(C=C2)Cl)N)C3=NC=NC4=C3C=CN4 [Capivasertib] (first compound max 1 µM, 7x7, partner max 3 µM)	-0.0469	0.446	0.393	1	0.543	0.328	0.883	0.499	0.965	0.329	0.345	0.449	0.642	0.664	0.954	0.461	0.78	0.429	1	0.226
COc1nnc2ccc(N3CCC(c4ccc(OCCN5CCN(C)C(=O)[C@H]5C)cc4)CC3)nn12 [AZD5153] + CN(CC[C@H](CSC1=CC=CC=C1)NC2=C(C=C(C=C2)S(=O)(=O)NC(=O)C3=CC=C(C=C3)N4CCC(CC4)[C@H](C5=CC=CC=C5C6=CC=C(C=C6)Cl)O)S(=O)(=O)C(F)(F)F)CCO [AZD4320] (first compound max 1 µM, 7x7, partner max 1 µM)	0.0851	0.915	0.754	1	0.978	0.957	0.975	0.328	0.987	0.357	0.754	0.595	0.868	0.695	0.918	0.674	0.856	0.79	–	–
N#Cc1cnc(Nc2cc(NC[C@H]3CNCCO3)c(C(F)(F)F)cn2)cn1 [SRA737] + O=c1[nH]cc(F)c(=O)[nH]1 [5-Fluorouracil] (first compound max 10 µM, 7x7, partner max 20 µM)	–	–	–	–	–	–	–	–	–	–	–	–	–	–	–	–	–	–	0.732	0.323
Cc1cc2ncnn2cc1Nc1ncc2c(n1)n(C1CCOCC1)c(=O)n2C [AZD7648] + COc1cc([C@@H]2c3cc4c(cc3[C@@H](O[C@@H]3O[C@@H]5CO[C@@H](C)O[C@H]5[C@H](O)[C@H]3O)[C@H]3COC(=O)[C@H]23)OCO4)cc(OC)c1O [Etoposide] (first compound max 10 µM, 7x7, partner max 10 µM)	–	–	–	–	–	–	–	–	–	–	–	–	–	–	–	–	–	–	0.653	0.528
CC(=O)c1c(C)c2cnc(Nc3ccc(N4CCNCC4)cn3)nc2n(C2CCCC2)c1=O [Palbociclib] + CN(CC[C@H](CSC1=CC=CC=C1)NC2=C(C=C(C=C2)S(=O)(=O)NC(=O)C3=CC=C(C=C3)N4CCC(CC4)[C@H](C5=CC=CC=C5C6=CC=C(C=C6)Cl)O)S(=O)(=O)C(F)(F)F)CCO [AZD4320] (first compound max 10 µM, 7x7, partner max 1 µM)	-0.127	0.449	0.497	0.883	0.691	0.619	0.917	0.202	1	0.275	0.0747	0.421	0.594	0.303	0.839	0.64	0.975	0.738	–	–
CN(CCO)CC[C@H](CSc1ccccc1)Nc1ccc(S(=O)(=O)NC(=O)c2ccc(N3CCC([C@@H](O)c4ccccc4-c4ccc(Cl)cc4)CC3)cc2)cc1S(=O)(=O)C(F)(F)F [AZD4320] + C[C@@H](Nc1cc(F)cc(F)c1)c1cc(C(=O)N(C)C)cc2c(=O)cc(N3CCOCC3)oc12 [AZD8186] (first compound max 1 µM, 7x7, partner max 3 µM)	-0.0129	0.525	0.285	0.941	0.414	0.672	0.842	0.437	0.991	0.329	0.325	0.442	0.602	0.401	0.916	0.937	0.939	0.781	1	–
CN(CCO)CC[C@H](CSc1ccccc1)Nc1ccc(S(=O)(=O)NC(=O)c2ccc(N3CCC([C@@H](O)c4ccccc4-c4ccc(Cl)cc4)CC3)cc2)cc1S(=O)(=O)C(F)(F)F [AZD4320] + Nc1ccn([C@@H]2O[C@H](CO)[C@@H](O)C2(F)F)c(=O)n1 [Gemcitabine] (first compound max 1 µM, 7x7, partner max 0.3 µM)	–	–	–	–	–	–	–	–	–	–	–	–	–	–	–	–	–	–	0.934	0.635
N#Cc1cnc(Nc2cc(NC[C@H]3CNCCO3)c(C(F)(F)F)cn2)cn1 [SRA737] + Nc1ccn([C@@H]2O[C@H](CO)[C@@H](O)C2(F)F)c(=O)n1 [Gemcitabine] (first compound max 10 µM, 7x7, partner max 0.3 µM)	–	–	–	–	–	–	–	–	–	–	–	–	–	–	–	–	–	–	–	0.592
Cc1nc(Nc2ncc(C(=O)Nc3c(C)cccc3Cl)s2)cc(N2CCN(CCO)CC2)n1 [Dasatinib] + CC(=O)Nc1cccc(-n2c(=O)n(C3CC3)c(=O)c3c(Nc4ccc(I)cc4F)n(C)c(=O)c(C)c32)c1 [Trametinib] (first compound max 2 µM, 7x7, partner max 1 µM)	-0.0358	0.205	0.472	0.443	0.834	0.973	0.157	0.414	0.334	0.737	0.464	0.554	0.956	0.522	0.995	0.281	0.556	0.688	0.169	–
CN(CCO)CC[C@H](CSc1ccccc1)Nc1ccc(S(=O)(=O)NC(=O)c2ccc(N3CCC([C@@H](O)c4ccccc4-c4ccc(Cl)cc4)CC3)cc2)cc1S(=O)(=O)C(F)(F)F [AZD4320] + C=CCn1c(=O)c2cnc(Nc3ccc(N4CCN(C)CC4)cc3)nc2n1-c1cccc(C(C)(C)O)n1 [AZD1775] (first compound max 1 µM, partner max 1 µM)	0.033	0.505	0.449	1	0.938	0.979	0.993	0.531	0.977	0.512	0.709	0.481	0.909	0.849	0.938	0.904	0.944	–	1	0.14
N#Cc1cnc(Nc2cc(NC[C@H]3CNCCO3)c(C(F)(F)F)cn2)cn1 [SRA737] + CCc1c2c(nc3ccc(O)cc13)-c1cc3c(c(=O)n1C2)COC(=O)[C@]3(O)CC [SN-38] (first compound max 10 µM, 7x7, partner max 0.3 µM)	–	–	–	–	–	–	–	–	–	–	–	–	–	–	–	–	–	–	0.88	0.475
CN(CCO)CC[C@H](CSc1ccccc1)Nc1ccc(S(=O)(=O)NC(=O)c2ccc(N3CCC([C@@H](O)c4ccccc4-c4ccc(Cl)cc4)CC3)cc2)cc1S(=O)(=O)C(F)(F)F [AZD4320] + CC(=O)O[C@H]1C(=O)[C@@]2(C)[C@H]([C@H](OC(=O)c3ccccc3)[C@]3(O)C[C@H](OC(=O)[C@H](O)[C@@H](NC(=O)c4ccccc4)c4ccccc4)C(C)=C1C3(C)C)[C@]1(OC(C)=O)CO[C@@H]1C[C@@H]2O [Paclitaxel] (first compound max 1 µM, 7x7, partner max 3 µM)	–	–	–	–	–	–	–	–	–	–	–	–	–	–	–	–	–	–	–	0.566
